Data reported in patent US20060153844A1, “Methods to trigger, maintain and manipulate immune responses by targeted administration of biological response modifiers into lymphoid organs” (priority 2004, published 2006).

How the values were obtained:
[1] = test system: p33-specific CD8+ T cells; assay: p33-specific CD8+ T cell function, intracellular interferon-γ by FACS, Imiquimod as adjuvant; assay type: in vivo, C57BL/6 mice; settings: 10 μg p33, day 8
Description: C57BL/6 mice were immunized with the immunodominant MHC class I binding epitope of the lymphocytic choriomeninigitis virus glycoprotein, p33 (SEQ. ID. No. 11). On day 8 after immunization mice were bled to analyze p33-specific CD8+ T cell function by FACS staining of CD8, CD44 and intracellular interferon-γ production after a 4-hour in vitro stimulation with p33. All groups of mice received the same dose of 10 μg p33. The adjuvant Imiquimod, however, was administered by different routes and in different doses. Mice were either injected intralymphatically with 250 μg or 25 μg of Imiquimod, or they were injected subcutaneously with 250 μg or 25 μg of Imiquimod. Control mice were immunized with p33, but received no Imiquimod.

[2] = including fatigue, malaise, fever, headache, and lymphocytopenia; cited from earlier work
IFN-gamma = IFN-gamma in supernatants of restimulated splenocytes after s.c. peptide in IFA; assay type: in vivo, mice; settings: subcutaneous immunization in combination with IFA; compared to non-self PSMA 730-739
Description: Alternatively, mice were immunized with the PSMA 288-297 or PSMA 730-739 epitope peptide in IFA and peptide by subcutaneous injection (5 μg peptide in 100 μl, twice, at day 0 and 7). One week after the last administration, splenocytes were stimulated ex vivo with 5 μg (FIG. 7, top panel), 10 μg (FIG. 7, middle panel) and 20 μg/ml (FIG. 7, bottom panel) of peptide for 3 days and the IFN-gamma concentration in cell supernatants measured by ELISA.

| Compound | induction of p33-specific CD8+ T cells ([1]; 250 μg Imiquimod intralymphatically) | induction of p33-specific CD8+ T cells ([1]; 250 μg Imiquimod subcutaneous) | toxicity when systemically administered [2] | immune responsiveness (IFN-gamma) (IFN-gamma) |
| --- | --- | --- | --- | --- |
| CC(C)Cn1cnc2c(N)nc3ccccc3c21 [Imiquimod, 1-(2-methylpropyl)-1H-imidazol [4,5-c]quinolin-4-amine] | enhanced induction of p33-specific CD8+ T cells | not after subcutaneous administration | significant toxicity when systemically administered | – |
| PSMA 288-297: SEQ. ID. No. 5, self epitope conserved between mouse and human (GLPSIPVHPI; Synthetically prepared peptide sequence) | – | – | – | decreased immune responsiveness |
